The test system of data set [1] is THP1-FRβ tumor cells. As to the kind of experiment: intravenous THP1-FRβ AML xenograft, E2 CAR-T cells plus EC17 dosing regimens. The format is in vivo. The procedure:
One objective of this E2-CAR T-cell study was to test EC17/E2 CAR-T cell activity and related toxicity (e.g., sCRS) using multiple dosing regimens starting 3 days after CAR-T infusion. Three different EC17 dosing regimens include (a) once-a-week (SIW) at 500 nmol/kg, (b) “T1W-like” at 5, 50, and 500 nmol/kg on Monday/Wednesday/Friday with 9-day intervals, and (c) “T1W-like” at 5, 100, and 1000 nmol/kg on Monday/Thursday/Monday with 7-day intervals.
THP-1-FRβ AML tumor cells were grown in folate-deficient RPMI 1640 with 5-10% FBS at 37° C. in a 5% CO2 humidified atmosphere. THP-1-FRO tumor cells in serum-free folate-deficient RPMI1640 medium were i.v. injected at 5×10^6 cells per animal.
Anti-FITC E2 scFv-CAR T cells were frozen in a T-cell freezing medium. Upon arrival, vials of frozen CAR-T cells were immediately stored at −80° C. The CAR-T cells were quickly thawed at 37° C., washed twice with CAR-T cell culture medium, and used for animal injection at 6 million viable EGFRt+E2 CAR-T cells (CD4/CD8 at ~1:1) per animal. A small aliquot was taken on the day infusion for flow cytometric analysis of E2-CAR T-cell phenotypes.
EC17 and bis-EDA-FITC dosing solutions were prepared when dosing began by weighing appropriate amounts of each compound, reconstituting in PBS, pH 7.4, sterile filtering the drug solution through a 0.22 pm PVDF syringe filter, and freezing aliquots for each day of dosing at −20° C.
All EC17 doses were given towards the end of day (3-4 PM) to allow potential CRS (cytokine release syndrome) to develop overnight. In the following morning, animals were scored according to a CRS grading system (see below).
Daily body weight measurement on the days after EC17 dose is required. Attention was given to gross animal morphology and behavior. Euthanasia was performed if mice lose a lot of weight in a short duration or when mice are approaching moribund conditions per CRS grading system or neurotoxicity.
Tumor growth, body weight, and overall assessment: Body weight measured 2-3 times/week. On the days immediately after any EC17 dose, body weight measurement was taken daily, and attentions were given to gross animal morphology and behavior.
Whole blood cell analysis: Plasma was removed from predetermined volumes of whole EDTA treated blood and RBCs were lysed with RBC lysis solution. The leukocyte pellets were then resuspended in flow cytometry staining solution (1% bovine serum albumin, 50 mg/mL human IgG (Equitech Bio, cat #SLH56-0001), 0.9% sodium azide in a phosphate buffered saline, pH=7.4) and leukocyte surface marker staining was performed using the following antibodies: anti-human CD45 (clone HI30, eBioscience #47-0459-42 at 1:20 (v/v) dilution), anti-human CD137 (clone 4B4-1, BD Bioscience #564092 at 1:20 (v/v) dilution), anti-human CD8α [clone RPA-T8, BD Bioscience, catalog #557746 at 1:20 (v/v) dilution], anti-human CD4 [clone SK3, eBioscience catalog #46-0047-42 at 1:20 (v/v) dilution], anti-human EGFR [R&D systems, clone Hu1, catalog #FAB9577B @1:10(n/n)], anti-human PD1 [BD Biosciences, clone EH12.1, catalog #562511 @1:20 (v/v)], anti-human LAG3 [BD Biosciences, clone T47-530, catalog #565616 @1:20 (v/v)], anti-human TIM3 [BD Biosciences, clone 7D3, catalog #565558 @1:20 (v/v)], anti-human CD3ε [BD Biosciences, clone SK7, catalog #557832 @1:20 (v/v)]. After leukocyte staining, cells were washed with PBS and resuspended in cold PBS containing 53,000 CountBright™ beads [Invitrogen catalog #C36950] and transferred to flow cytometry collection tubes. Flow cytometry data was collected on the Gallios flow cytometer (Beckman Coulter, Brea, CA). Determination of the concentration of CAR T cells in each blood sample was calculated according to Invitrogen's instructions. CAR T cells were identified as human CD3ε+EGFRt+ events and easily distinguished and counted using the Kaluza™ flow cytometry software. […]

The nature of data set [2]: EC17 dose finding and CRS assessment in tumor-free mice. Format: in vivo, NSG mice. From the text: For MDA-MB-231 studies, mice received a high dose (~10 million) of a “clinical facsimile” of E2-CAR-T cells (~39% EGFRt+) with a low differentiation profile (FIG. 9). Two days later, 3 different treatment regimens of EC17 were started at an average tumor size of −293±39 mm^3 (FIG. 12). The EC17 dosing was given once-a-week (SIW) at 500 nmol/kg on Mondays, or as escalating doses of 5, 50 or 100, and 500 or 1000 nmol/kg (i.e., 5/50/500 or 5/100/1000) on Monday, Thursday, and Monday with a 6-day break in-between cycles. Control mice were left untreated (received CAR-T cells but no EC17). For comparison, a cohort of tumor-free littermates also received the same number of CAR-T cells without or with EC17 SIW at 500 nmol/kg.
The initial EC17 dose finding studies were conducted in MDA-MB-231 tumor bearing mice as shown by the schematic diagram of the experimental layout (FIG. 12, panel A). NSG mice without or with MDA-MB-231 tumors (~211±65 mm3) were engrafted on day 0 with −10 million of a “clinical facsimile” batch of E2-CAR-T cells (−39% EGFRt+, 51:49 CD4/CD8). This batch of CAR-T cells consisted of mostly TSCM and TCM phenotypes (see FIG. 9). Two days after the CAR-T cell injection, one cohort of tumor-bearing mice were left untreated while three cohorts were treated with different regimens of EC17, including single injection per week (SIW) at 500 nmol/kg, or as escalating EC17 dose levels of 5/50/500 (Escalation-1) or 5/100/1000 nmol/kg (Escalation-2) given on a Monday/Thursday/Monday schedule with 1-week drug-free intervals. For comparison, two tumor-free cohorts were either untreated or treated with EC17 SIW at 500 nmol/kg.

A short description of data set [3]: water solubility of EC17. The format is physicochemical.
The conditions of data set [4]: cited from earlier work.
[5] abbreviates: 6 million CAR-T + EC17 SIW 500 nmol/kg (Cohort 3).

Entries after “also recorded” stand apart in the source; their conditions may differ. A value given as a limit tells only on which side of the number the result lay.

On to `NC1=NC2N=CC(CNc3ccc(C(=O)N[C@@H](CCC(=O)NCCNC(=S)Nc4ccc(-c5c6ccc(=O)cc-6oc6cc(O)ccc56)c(C(=O)O)c4)C(=O)O)cc3)=NC2C(=O)N1` (stereo partly drawn) [EC17, FA-(γ)-ethylenediamine-FITC], for which the body weight loss result in data set [1] (6 million CAR-T + EC17 M/Th/M dose escalation (Cohort 5)) is “little body weight loss during the first two cycles; also recorded: very mild body weight loss”; in data set [1] (setting [5]) it was “EC17 dose-dependent body weight loss after each EC17 dose; also recorded: some body weight loss”; in data set [1] (6 million CAR-T + EC17 TIW 5/50/500 nmol/kg on/off (Cohort 4)), “mildest body weight loss among three treatment groups; also recorded: least body weight loss”; in data set [2] (tumor-free mice, CAR-T cells + two weekly doses of EC17 at 500 nmol/kg), “no CRS symptoms (grade 0 out of a 0-5 scale) or body weight loss”. In addition, the CRS grade in data set [1] (setting [5]) was 1-2. Also, the “circulating THP1-FRβ (GFP+) tumor cells in blood” value in data set [1] (E2 CAR T cells + EC17, all three dosing regimens, end of study) was “significant reduction in circulating THP1 cell burden; also recorded: effectively reduced circulating THP11-FRβ tumor cells in the blood”. Moreover, the non-liver macrometastases entry in data set [1] (EC17 M/Th/M dose escalation at a slow pace per cycle) is on record as “failed to control the non-liver macrometastases”; in data set [1] (EC17 SIW 500 nmol/kg), “successfully controlled non-liver macrometastases”; in data set [1] (EC17 TIW 5/50/500 nmol/kg on/off), “successfully controlled non-liver macrometastases”. Besides, in data set [1] (EC17 TIW 5/50/500 nmol/kg on/off (Cohort 4), Day 39), the “liver and non-liver (overall) tumor burden” value is given as “best anti-tumor activity among the three different EC17 dose schedules; also recorded: trended to be the best regimen”. Besides, the “co-expression of PD1, LAG3, TIM3 on CAR T cells from liver tumors” value in data set [1] (EC17 TIW (cohort 4)) is “fewest number of double and triple positive events”. The “CAR T exhaustion” value in data set [1] (all three EC17 dosing regimens) is reported as “very little induction of CAR T exhaustion”. Also, the “severe CRS (grades≥3)” value in data set [1] (any EC17 treated cohort) is listed as “no severe CRS (i.e., grades≥3) was observed”. Also, the “circulating CAR-T cells in blood” value in data set [1] (satellite animals, day 31, all EC17 treated cohorts) was “EC17-dependent CAR-T cell expansion and persistence in all treated cohorts”. Further, in data set [2] (tumor-free cohorts), the “CAR-T cell expansion by flow cytometry” value is listed as “no CAR-T cell expansion was detected”. Besides, the IFNγ in plasma result in data set [2] (tumor-free, CAR-T cells plus EC17, days 11 and 12) is on record as “low levels of IFNγ were detected”. Further, in data set [3], the water solubility result is “good water solubility”. The clearance from circulation entry in data set [4] (0.1 mg/kg intravenous) is “rapid clearance from circulation”. In data set [4] (after administration, latest time-point evaluated), the “time EC17 fluorescence signal observed at the site of the tumor” value was “up to 5 hours”. In addition, the “time to real-time visualization of malignant lesions” value in data set [4] (post EC17 administration) was ≤ 2 h. The elimination half-life in data set [4] (single 10-minute intravenous infusion of 0.1 mg/kg, plasma) is 1.45 h.

The values are drawn from patent publication US20260263517A1, “THERAPEUTIC METHODS WITH TARGET-LINKED SMALL MOLECULES AND ANTI-TARGET CAR T CELLS” (Seattle Children's Hospital (dba Seattle Children's …, priority 2022, published 2026).
